Test results as given in paper PMC11912475 (Journal of Medicinal Chemistry, 2025).
Read-outs that look alike come from different tables or passages of the source.

Columns and labels:
[1] = biological target: T1, GluN1-GluN2B NMDAR subtype (Homo sapiens, UniProt Q05586+Q13224); assay: FLIPR/Ca2+ assay, NMDAR GluN1-GluN2B subtype in CHO cells; format: cell-based
T1 construct: host or cells: NR1-2B-CHO cells, constitutive expression
Experimental: (§1) These compounds were assessed for their effects on specific heterodimeric NMDAR subtypes stably overexpressed in Chinese Hamster Ovary (CHO) cells. The subtypes tested included GluN1-GluN2A, GluN1-GluN2B, GluN1-GluN2C, and GluN1-GluN2D. CHO cells expressing each of the four NMDAR subtypes were incubated with 10 μM L-glutamate, a concentration known to elicit maximal Ca^2+ influx, serving as the stimulus. Intracellular Ca^2+ levels were subsequently measured to determine the extent of NMDAR activation.
(§2) Assay buffer composition was 145 mM NaCl, 5 mM KCl, 2 mM CaCl2, 1 g/Liter D-(+)-glucose, and 20 mM HEPES (pH 7.3 adjusted with NaOH). Cells were plated at a density of 15.000/well in 384 black/clear bottom plates. […] Cells were kept at 30 °C in 5% CO2 incubator for 24 h. Cells were preloaded for 1 h with 2 μM Fluo-4 Ca^2+-sensitive probe, simultaneously with 2.5 mM probenecid, an inhibitor of nonspecific anion transport, and 500 μM ketamine to avoid cytotoxicity. […] Intracellular Ca^2+ level was monitored by FLIPR (excitation wavelength at 470–495 nm, emission wavelength at 515–575 nm) for 10 s before and 5 min after the addition of test items. All test items, including L-glutamate and glycine, were added simultaneously. […] FLIPR data were normalized as 100%, in the presence of 10 μM L-glutamate and 10 μM glycine, while as 0%, in the presence of assay buffer. […] Then, data were normalized by Excel 2013 (Microsoft Office) software, using wells added with 10 μM L-glutamate plus 10 μM glycine (column 23) as high control, and wells added with assay buffer only (column 24) as low control. To assess plate quality, Z′ calculations were performed in Excel. Z′ was calculated according to following equation: Z′ = 1–3(σh + σl)/|μh – μL| where μ and σ are the means and the standard deviations of the means of high (h) and low (l) controls, respectively. Compound concentration–response curves were plotted by Prism 8 GraphPad software, in the different experimental conditions (see Supporting Information). Data were analyzed using least-squares regression fitting, to fit data to a standard four parameters logistic equation using GraphPad Prism10. This regression fitting allowed the calculation of pIC50 and the corresponding SEM.

[2] = biological target: GluN1-GluN2C NMDAR subtype (Homo sapiens, UniProt Q05586+Q14957); assay: FLIPR/Ca2+ assay, NMDAR GluN1-GluN2C subtype in CHO cells; format: cell-based
Experimental: as §1, §2

[3] = biological target: GluN1-GluN2D NMDAR subtype (Homo sapiens, UniProt O15399+Q05586); assay: FLIPR/Ca2+ assay, NMDAR GluN1-GluN2D subtype in CHO cells; format: cell-based
Experimental: as §1, §2

[4] = biological target: GluN1-GluN2A NMDAR subtype (Homo sapiens, UniProt Q05586+Q12879); assay: FLIPR/Ca2+ assay, NMDAR GluN1-GluN2A subtype in CHO cells; format: cell-based; settings: for pIC50 (mean ± SEM) GluN1-GluN2A: CHO cells, 10 μM L-glutamate and 10 μM glycine, n.d. = 50% of inhibition could not be reached at the highest concentration used
Experimental: as §1, §2

[5] = biological target: T2, Sigma σ1 (Homo sapiens, UniProt Q99720); assay: Radioligand displacement binding assay, [3H]pentazocine, sigma σ1
T2 construct: Sigma σ1; Source: Human Jurkat cells; host or cells: Jurkat

[6] = biological target: T3, Serotonin 5-HT5A (Homo sapiens, UniProt P47898); assay: Radioligand displacement binding assay, [3H]LSD, 5-HT5A
T3 construct: host or cells: CHO-K1

[7] = biological target: T4, Norepinephrine transporter NET (Homo sapiens, UniProt P23975); assay: Radioligand displacement binding assay, [125I]RTI-55, NET
T4 construct: host or cells: MDCK

[8] = biological target: T5, Serotonin 5-HT2A (Homo sapiens, UniProt P28223); assay: Radioligand displacement binding assay, [3H]ketanserin, 5-HT2A
T5 construct: host or cells: CHO-K1

[9] = biological target: T6, Serotonin transporter SERT (Homo sapiens, UniProt P31645); assay: Radioligand displacement binding assay, [3H]paroxetine, SERT
T6 construct: host or cells: HEK-293

[10] = biological target: T7, Serotonin 5-HT7 (Homo sapiens, UniProt P34969); assay: Radioligand displacement binding assay, [3H]LSD, 5-HT7
T7 construct: host or cells: CHO-K1

[11] = biological target: T8, Histamine H1 (Homo sapiens, UniProt P35367); assay: Radioligand displacement binding assay, [3H]pyrilamine, H1
T8 construct: host or cells: CHO-K1

[12] = biological target: T9, Muscarinic M5 (Homo sapiens, UniProt P08912); assay: Radioligand displacement binding assay, [3H]N-methylscopolamine, M5
T9 construct: host or cells: CHO-K1
T9 sequence (P08912 1-532): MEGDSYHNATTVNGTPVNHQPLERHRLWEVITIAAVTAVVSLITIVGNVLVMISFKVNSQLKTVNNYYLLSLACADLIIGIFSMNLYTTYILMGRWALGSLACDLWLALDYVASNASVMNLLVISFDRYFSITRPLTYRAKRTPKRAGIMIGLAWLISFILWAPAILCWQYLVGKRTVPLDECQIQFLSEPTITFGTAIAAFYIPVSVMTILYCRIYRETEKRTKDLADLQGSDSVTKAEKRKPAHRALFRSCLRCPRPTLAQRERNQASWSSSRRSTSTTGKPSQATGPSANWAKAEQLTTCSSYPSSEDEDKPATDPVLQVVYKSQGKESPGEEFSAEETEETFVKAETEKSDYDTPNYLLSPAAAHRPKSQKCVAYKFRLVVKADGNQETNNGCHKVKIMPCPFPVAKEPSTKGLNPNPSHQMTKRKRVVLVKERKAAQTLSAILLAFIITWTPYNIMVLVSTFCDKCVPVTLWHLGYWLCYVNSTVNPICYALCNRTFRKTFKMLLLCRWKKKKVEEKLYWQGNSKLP

[13] = biological target: T10, Serotonin 5-HT1A (Homo sapiens, UniProt P08908); assay: Radioligand displacement binding assay, [3H]8-OH-DPAT, 5-HT1A
T10 construct: host or cells: CHO-K1
T10 sequence (P08908 1-422): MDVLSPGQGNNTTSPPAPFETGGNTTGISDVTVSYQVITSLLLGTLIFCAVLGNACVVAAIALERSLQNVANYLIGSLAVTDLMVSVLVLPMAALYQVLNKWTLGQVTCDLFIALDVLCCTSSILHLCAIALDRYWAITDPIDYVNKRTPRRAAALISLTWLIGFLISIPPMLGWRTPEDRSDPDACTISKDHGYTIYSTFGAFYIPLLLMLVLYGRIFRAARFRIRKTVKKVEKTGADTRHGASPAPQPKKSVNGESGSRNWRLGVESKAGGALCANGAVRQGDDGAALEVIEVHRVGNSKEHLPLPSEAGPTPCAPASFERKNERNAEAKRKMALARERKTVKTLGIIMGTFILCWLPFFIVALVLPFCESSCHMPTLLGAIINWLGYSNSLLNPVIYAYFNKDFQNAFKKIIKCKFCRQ

[14] = biological target: T11, Serotonin 5-HT2C (Homo sapiens, UniProt P28335); assay: Radioligand displacement binding assay, [3H]mesulergine, 5-HT2C
T11 construct: host or cells: CHO-K1
T11 sequence (P28335 33-458): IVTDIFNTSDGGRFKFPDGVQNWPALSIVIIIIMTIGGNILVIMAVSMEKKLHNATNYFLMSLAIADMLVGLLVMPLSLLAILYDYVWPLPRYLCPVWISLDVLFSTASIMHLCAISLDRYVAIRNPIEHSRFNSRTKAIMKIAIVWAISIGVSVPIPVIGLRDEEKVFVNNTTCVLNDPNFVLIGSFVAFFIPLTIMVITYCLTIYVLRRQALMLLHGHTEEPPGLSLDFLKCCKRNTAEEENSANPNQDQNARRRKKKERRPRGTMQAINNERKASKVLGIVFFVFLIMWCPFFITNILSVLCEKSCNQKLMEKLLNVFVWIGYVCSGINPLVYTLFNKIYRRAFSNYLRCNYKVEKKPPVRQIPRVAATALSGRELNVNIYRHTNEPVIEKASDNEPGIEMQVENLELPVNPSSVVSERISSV

[15] = CHO cells, 10 μM L-glutamate and 10 μM glycine, n.d. = 50% of inhibition could not be reached at the highest concentration used

Chain of GluN1-GluN2A NMDAR subtype (Q12879 23-1464, other chains not shown): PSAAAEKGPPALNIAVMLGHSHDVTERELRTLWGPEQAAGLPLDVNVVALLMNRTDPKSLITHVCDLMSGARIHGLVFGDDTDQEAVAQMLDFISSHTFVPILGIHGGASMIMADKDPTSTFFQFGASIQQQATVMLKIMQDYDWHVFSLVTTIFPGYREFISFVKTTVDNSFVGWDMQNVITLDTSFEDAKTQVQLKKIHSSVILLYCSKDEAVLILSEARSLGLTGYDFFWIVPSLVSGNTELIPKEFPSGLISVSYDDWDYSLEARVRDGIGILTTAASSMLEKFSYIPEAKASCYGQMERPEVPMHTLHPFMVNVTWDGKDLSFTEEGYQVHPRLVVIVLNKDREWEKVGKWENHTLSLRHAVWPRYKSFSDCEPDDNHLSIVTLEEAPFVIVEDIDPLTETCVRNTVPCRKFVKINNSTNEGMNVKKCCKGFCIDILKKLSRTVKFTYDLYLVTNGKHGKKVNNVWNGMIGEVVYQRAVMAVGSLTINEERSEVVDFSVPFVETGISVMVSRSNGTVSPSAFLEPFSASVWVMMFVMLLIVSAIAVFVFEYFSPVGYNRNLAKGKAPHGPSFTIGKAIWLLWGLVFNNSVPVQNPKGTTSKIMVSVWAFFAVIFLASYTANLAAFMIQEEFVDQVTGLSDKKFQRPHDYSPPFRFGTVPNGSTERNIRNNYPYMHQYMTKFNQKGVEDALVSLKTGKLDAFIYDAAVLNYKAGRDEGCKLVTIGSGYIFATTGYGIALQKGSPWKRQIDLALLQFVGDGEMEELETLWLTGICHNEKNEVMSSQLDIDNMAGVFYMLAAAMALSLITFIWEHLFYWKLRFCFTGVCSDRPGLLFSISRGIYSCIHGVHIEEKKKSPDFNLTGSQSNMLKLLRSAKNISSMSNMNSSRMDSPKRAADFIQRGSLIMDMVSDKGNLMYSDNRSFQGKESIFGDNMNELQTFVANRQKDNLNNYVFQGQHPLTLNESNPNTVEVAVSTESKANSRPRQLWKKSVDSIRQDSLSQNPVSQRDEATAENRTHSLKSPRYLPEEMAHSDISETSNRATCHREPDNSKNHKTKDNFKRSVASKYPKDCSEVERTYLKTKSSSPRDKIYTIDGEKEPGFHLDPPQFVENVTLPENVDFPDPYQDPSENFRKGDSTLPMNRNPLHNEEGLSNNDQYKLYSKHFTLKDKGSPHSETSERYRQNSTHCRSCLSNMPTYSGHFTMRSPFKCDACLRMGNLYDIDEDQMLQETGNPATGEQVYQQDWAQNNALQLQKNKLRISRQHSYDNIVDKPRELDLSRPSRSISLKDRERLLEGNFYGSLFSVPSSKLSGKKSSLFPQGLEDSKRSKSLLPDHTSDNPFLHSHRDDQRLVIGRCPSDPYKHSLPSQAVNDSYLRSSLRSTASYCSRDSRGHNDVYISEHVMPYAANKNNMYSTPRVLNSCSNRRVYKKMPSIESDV
T8 sequence (P35367 whole entry): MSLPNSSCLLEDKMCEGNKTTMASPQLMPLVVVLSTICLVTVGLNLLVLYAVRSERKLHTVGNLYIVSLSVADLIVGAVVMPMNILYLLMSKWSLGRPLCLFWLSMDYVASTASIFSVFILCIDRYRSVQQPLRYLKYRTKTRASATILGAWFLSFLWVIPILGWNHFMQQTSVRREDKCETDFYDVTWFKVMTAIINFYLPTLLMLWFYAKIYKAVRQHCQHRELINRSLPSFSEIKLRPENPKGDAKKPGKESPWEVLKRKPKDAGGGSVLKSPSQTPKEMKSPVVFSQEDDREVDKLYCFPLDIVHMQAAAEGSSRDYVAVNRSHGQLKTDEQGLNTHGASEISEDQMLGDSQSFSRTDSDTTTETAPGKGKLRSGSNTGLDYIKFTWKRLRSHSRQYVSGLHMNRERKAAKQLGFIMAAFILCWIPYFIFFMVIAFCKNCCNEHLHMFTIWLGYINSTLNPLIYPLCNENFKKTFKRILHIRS
Chain of GluN1-GluN2D NMDAR subtype (O15399 28-1336, other chains not shown): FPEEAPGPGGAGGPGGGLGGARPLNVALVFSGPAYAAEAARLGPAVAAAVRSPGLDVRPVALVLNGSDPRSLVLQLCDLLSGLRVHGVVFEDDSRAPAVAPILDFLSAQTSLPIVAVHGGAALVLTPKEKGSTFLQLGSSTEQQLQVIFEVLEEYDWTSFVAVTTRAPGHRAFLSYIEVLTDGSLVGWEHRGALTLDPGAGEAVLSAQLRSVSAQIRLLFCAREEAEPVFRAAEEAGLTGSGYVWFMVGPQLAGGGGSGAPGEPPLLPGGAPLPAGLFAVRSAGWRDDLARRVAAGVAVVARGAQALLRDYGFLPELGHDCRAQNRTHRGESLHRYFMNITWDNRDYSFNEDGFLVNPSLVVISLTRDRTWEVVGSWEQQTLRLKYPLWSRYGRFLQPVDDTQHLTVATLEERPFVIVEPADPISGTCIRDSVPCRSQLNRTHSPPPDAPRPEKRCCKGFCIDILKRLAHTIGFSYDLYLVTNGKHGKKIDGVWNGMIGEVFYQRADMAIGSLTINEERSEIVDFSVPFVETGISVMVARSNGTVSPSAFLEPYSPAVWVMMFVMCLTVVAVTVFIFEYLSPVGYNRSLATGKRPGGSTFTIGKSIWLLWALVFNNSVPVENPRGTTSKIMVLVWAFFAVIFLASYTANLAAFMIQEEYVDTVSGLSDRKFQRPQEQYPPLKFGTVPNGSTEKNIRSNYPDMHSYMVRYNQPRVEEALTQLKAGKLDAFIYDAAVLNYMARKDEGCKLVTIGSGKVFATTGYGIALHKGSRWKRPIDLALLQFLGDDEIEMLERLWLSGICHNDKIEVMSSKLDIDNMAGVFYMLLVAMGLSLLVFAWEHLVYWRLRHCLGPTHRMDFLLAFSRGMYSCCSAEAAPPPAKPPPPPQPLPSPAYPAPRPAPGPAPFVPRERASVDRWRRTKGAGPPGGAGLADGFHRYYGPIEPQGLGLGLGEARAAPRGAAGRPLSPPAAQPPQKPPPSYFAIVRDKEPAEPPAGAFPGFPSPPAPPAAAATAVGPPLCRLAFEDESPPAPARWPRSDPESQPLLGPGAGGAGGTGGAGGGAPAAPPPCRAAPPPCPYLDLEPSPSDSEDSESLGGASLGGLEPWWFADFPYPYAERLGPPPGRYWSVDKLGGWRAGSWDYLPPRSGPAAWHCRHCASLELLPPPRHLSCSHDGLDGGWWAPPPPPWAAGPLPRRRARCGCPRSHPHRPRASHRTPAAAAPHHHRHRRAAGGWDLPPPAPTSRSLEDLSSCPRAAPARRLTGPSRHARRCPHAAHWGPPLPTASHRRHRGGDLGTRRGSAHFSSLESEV
T5 sequence (P28223 whole entry): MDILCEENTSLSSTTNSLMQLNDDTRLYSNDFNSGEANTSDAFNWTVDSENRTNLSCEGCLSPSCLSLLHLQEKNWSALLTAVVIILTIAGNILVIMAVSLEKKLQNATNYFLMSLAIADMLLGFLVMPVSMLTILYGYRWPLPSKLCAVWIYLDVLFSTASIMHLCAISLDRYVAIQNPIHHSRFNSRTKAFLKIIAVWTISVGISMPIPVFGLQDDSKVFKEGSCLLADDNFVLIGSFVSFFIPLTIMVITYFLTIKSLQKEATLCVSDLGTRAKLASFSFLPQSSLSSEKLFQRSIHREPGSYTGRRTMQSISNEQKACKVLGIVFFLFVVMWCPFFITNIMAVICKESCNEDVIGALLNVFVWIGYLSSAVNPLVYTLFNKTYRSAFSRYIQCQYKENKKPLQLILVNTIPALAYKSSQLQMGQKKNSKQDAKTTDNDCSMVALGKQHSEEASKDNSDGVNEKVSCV
Chain of GluN1-GluN2C NMDAR subtype (Q14957 20-1233, other chains not shown): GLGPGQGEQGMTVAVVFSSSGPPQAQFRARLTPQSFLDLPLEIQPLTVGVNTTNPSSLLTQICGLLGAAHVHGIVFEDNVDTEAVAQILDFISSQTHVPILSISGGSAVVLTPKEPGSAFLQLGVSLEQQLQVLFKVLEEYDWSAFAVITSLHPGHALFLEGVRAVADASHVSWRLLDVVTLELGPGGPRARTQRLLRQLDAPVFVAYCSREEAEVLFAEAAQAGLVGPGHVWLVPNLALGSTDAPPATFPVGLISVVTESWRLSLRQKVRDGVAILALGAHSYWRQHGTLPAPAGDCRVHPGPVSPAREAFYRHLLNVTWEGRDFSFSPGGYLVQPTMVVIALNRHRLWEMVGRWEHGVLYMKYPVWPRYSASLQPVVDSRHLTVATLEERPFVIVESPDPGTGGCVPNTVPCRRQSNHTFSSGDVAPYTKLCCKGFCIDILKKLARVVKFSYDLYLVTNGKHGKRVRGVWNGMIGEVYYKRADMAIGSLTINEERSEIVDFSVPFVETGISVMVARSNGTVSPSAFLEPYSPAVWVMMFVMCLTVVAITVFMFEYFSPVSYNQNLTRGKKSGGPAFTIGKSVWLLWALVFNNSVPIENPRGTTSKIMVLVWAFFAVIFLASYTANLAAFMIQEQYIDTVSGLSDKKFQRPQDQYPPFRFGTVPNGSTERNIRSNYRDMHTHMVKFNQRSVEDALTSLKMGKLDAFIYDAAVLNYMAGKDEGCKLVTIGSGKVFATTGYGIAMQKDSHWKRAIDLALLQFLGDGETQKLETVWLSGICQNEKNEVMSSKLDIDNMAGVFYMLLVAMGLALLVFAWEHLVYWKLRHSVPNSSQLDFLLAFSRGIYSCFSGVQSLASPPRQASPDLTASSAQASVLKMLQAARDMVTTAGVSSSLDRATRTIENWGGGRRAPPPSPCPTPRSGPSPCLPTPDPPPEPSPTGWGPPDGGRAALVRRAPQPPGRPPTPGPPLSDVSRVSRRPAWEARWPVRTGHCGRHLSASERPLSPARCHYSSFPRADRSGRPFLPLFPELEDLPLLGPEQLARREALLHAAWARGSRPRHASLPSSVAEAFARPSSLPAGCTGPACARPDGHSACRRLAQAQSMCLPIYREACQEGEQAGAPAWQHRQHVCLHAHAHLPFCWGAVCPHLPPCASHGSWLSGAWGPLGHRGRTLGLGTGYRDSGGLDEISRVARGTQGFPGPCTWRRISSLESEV

CCC1=N[C@@H](C)CC1(c1ccccc1)c1ccccc1 [(S)-EMDP, 5-Ethyl-2-methyl-4,4-diphenyl-3,4-dihydro-2H-pyrrole]
IC50 ([1]; CHO cells, 10 μM L-glutamate and 10 μM glycine, n.d. = 50% of inhibition could not be reached at the highest concentration used, read-out: pIC50 (mean ± SEM) GluN1-GluN2B (converted)): > 100 µM | IC50 ([2]; CHO cells, 10 μM L-glutamate and 10 μM glycine, n.d. = 50% of inhibition could not be reached at the highest concentration used, read-out: pIC50 (mean ± SEM) GluN1-GluN2C (converted)): > 100 µM | IC50 ([3]; CHO cells, 10 μM L-glutamate and 10 μM glycine, n.d. = 50% of inhibition could not be reached at the highest concentration used, read-out: pIC50 (mean ± SEM) GluN1-GluN2D (converted)): > 100 µM

CCC1=[N+](C)[C@@H](C)CC1(c1ccccc1)c1ccccc1 [(S)-EDDP, 2-Ethyl-1,5-dimethyl-3,3-diphenyl-3,4-dihydro-5H-pyrrolium chloride]
IC50 [1]: > 100 µM | IC50 [4]: > 100 µM | IC50 [2]: > 100 µM | IC50 [3]: > 100 µM

CCC(=O)C(C[C@H](C)N(C)C)(c1ccccc1)c1ccccc1 [(S)-methadone, 6-(Dimethylamino)-4,4-diphenylheptan-3-one, reference compound]
inhibition at 0.3 µM ([5]; 0.3 μM): 23% | inhibition at 3 µM ([5]; 3 μM): 70% | inhibition at 1 µM ([6]; 1 μM): 24% | inhibition at 10 µM ([6]; 10 μM): 70% | inhibition at 1 µM ([7]; 1 μM): 5% | inhibition at 10 µM ([7]; 10 μM): 17% | inhibition at 0.3 µM ([8]; 0.3 μM): 22% | inhibition at 3 µM ([8]; 3 μM): 72% | activity on 5-HT2A, in words ([8]; concentration not given): appreciable activity | inhibition at 1 µM ([9]; 1 μM): 21% | inhibition at 10 µM ([9]; 10 μM): 74% | inhibition at 1 µM ([10]; 1 μM): 12% | inhibition at 10 µM ([10]; 10 μM): 58% | inhibition at 10 µM ([11]; 10 μM): 50% | inhibition at 30 µM ([11]; 30 μM): 73% | displacement at the histamine H1 receptor, in words ([11]; concentration not given): significant displacement percentages | inhibition at 1 µM ([12]; 1 μM): 25% | inhibition at 10 µM ([12]; 10 μM): 73% | inhibition at 0.3 µM ([13]; 0.3 μM): -2% | inhibition at 3 µM ([13]; 3 μM): 2% | inhibition at 0.3 µM ([14]; 0.3 μM): 30% | inhibition at 3 µM ([14]; 3 μM): 77%

CC[C@@H](O)C(C[C@@H](C)N(C)C)(c1ccccc1)c1ccccc1 [(3R,6R)-ML, (3R,6R)-6-(dimethylamino)-4,4-diphenylheptan-3-ol]
pIC50 (mean ± SEM) GluN1-GluN2B [1, 15]: 4.0 ± 0.12 | pIC50 (mean ± SEM) GluN1-GluN2A [4]: 4.5 ± 0.085 | pIC50 (mean ± SEM) GluN1-GluN2C [2, 15]: 4.1 ± 0.062 | pIC50 (mean ± SEM) GluN1-GluN2D [3, 15]: 4.3 ± 0.12

COc1ccc2c(c1)[C@]13CCCC[C@@H]1[C@H](C2)N(C)CC3 [dextromethorphan, reference compound]
pIC50 (mean ± SEM) GluN1-GluN2B [1, 15]: 4.8 ± 0.037 | pIC50 (mean ± SEM) GluN1-GluN2A [4]: 4.3 ± 0.029 | pIC50 (mean ± SEM) GluN1-GluN2C [2, 15]: 5.2 ± 0.057 | pIC50 (mean ± SEM) GluN1-GluN2D [3, 15]: 4.6 ± 0.12
